According to patent US11667632B2, “2-(1H-indazol-3-yl)-3H-imidazo[4,5-C]pyridines and their anti-inflammatory uses thereof” (BioSplice Therapeutics, Inc., priority 2015, dated 2023):

Assays:
[1] = Persistence of radiolabeled Compound 10 in rabbit knee joints; format: in vivo; details: rabbits; two single IA injections in two knees at 4 μg/knee; after 1 hour up to 168 hours
TNF-α = assay: Inhibition of TNF-α in LPS-stimulated primary PBMCs (ELISA, MSD U-plex); format: cell-based; details: human PBMCs, LPS (500 ng/mL), Compound 10 (150 nM), 24 hrs; MSD platform; FIG. 15
Procedure: (§1) Primary peripheral blood mononuclear cells (PBMCs) freshly isolated from healthy human donors were obtained from AllCells Inc. and utilized for assays immediately. Compound 10 was dissolved in DMSO as a 10 mM stock and used to prepare compound source plates. A serial dilution (8-point dose-response) and compound transfer was performed using the ECHO 550 (Labcyte, Sunnyvale, Calif.) into 96-well clear bottom assay plates (Greiner Bio-One) with appropriate DMSO backfill for a final DMSO concentration of 0.05%. PBMCs were plated at 2×10e^5 cells/well in Roswell Park Memorial Institute (RPMI) 1640 Medium (Catalog #21870-100, Buffalo, N.Y.) with 1% L-glutamine, 1% HEPES, 1% Sodium Pyruvate, 2% Sodium Bicarbonate supplemented with 100 units/mL penicillin, 50 μg/mL streptomycin and 1% fetal bovine serum (Catalog #16140089, Life Technologies, Carlsbad, Calif.). […]
(§2) Supernatants were diluted appropriately for ELISA. […] Following several washes to remove unbound avidin-HRP, the TMB substrate was added and the plates were read on the Cytation 3 plate reader (Biotek Inc., Winooski, Vt.) at an absorbance of 450 nm with correction at 570 nm. […] Inhibition profile and EC50 was calculated using Prism 5 (GraphPad Software Inc, La Jolla, Calif., USA). […] Levels of cytokines were calculated using software form Meso Scale Discovery.

IL-1β = assay: Inhibition of IL-1β in LPS-stimulated primary PBMCs (MSD U-plex); format: cell-based; details: human PBMCs, LPS (500 ng/mL), Compound 10 (150 nM), 24 hrs; MSD platform; FIG. 15
Procedure: as §1, §2

IL-6 [2] = assay: Inhibition of IL-6 in LPS-stimulated primary PBMCs (ELISA, MSD U-plex); format: cell-based; details: human PBMCs, LPS (500 ng/mL), Compound 10 (150 nM), 24 hrs; MSD platform; FIG. 15
Procedure: as §1, §2

IL-6 [3] = assay: Inhibition of IL-6 in LPS-stimulated human monocyte cells (THP-1), HTRF; format: cell-based; details: Homo sapiens; THP-1 cells, LPS 500 ng/mL, IL-6 by HTRF
How it was run: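 THP-1 cells were kept 24 h in 1% FBS, then given compound (1:3, 10-point series from 10 μM, 0.1% DMSO) for 2 h before 500 ng/mL LPS for 22 h at 37 °C. IL-6 was measured by HTRF 665/620 ratio. EC50 came from four-parameter fits normalized to DMSO, with % inhibition at 10 μM reported when EC50 >10 μM.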

[4] = Persistence and half-life of radiolabeled Compound 10 in rat knee joints; format: in vivo; details: SD rats
From the text: […] These same animals were used for the QWBA experiments (above).
On Day 180, only about ˜6.6% of administered dose was detected.

[5] = Plasma concentrations after a single intra-articular injection of radiolabeled Compound 10 in rats; format: in vivo, Sprague Dawley (SD) rats; details: SD rats, single IA injection 1 μg/knee
Procedure: Plasma concentration and distribution of Compound 10 following a single IA injection in Sprague Dawley (SD) rats were investigated in radiolabeled and mass balance studies with a tritium-labeled (^3H) Compound 10. [^3H]-Compound 10 was formulated as a suspension in 0.5% carboxymethylcellulose/0.05% polysorbate 80 for intra-articular (IA) injection and diluted with unlabeled Compound 10 to the appropriate concentration and injected in the rat knee joint at a dose level equivalent to 1 μg/knee.

IL-8 = assay: Inhibition of IL-8 in LPS-stimulated primary PBMCs (MSD U-plex); format: cell-based; details: human PBMCs, LPS (500 ng/mL), Compound 10 (150 nM), 24 hrs; MSD platform; FIG. 15
Procedure: as §1, §2

IL-5 = assay: Inhibition of IL-5 in LPS-stimulated primary PBMCs (MSD U-plex); format: cell-based; details: human PBMCs, LPS (500 ng/mL), Compound 10 (150 nM), 24 hrs; MSD platform; FIG. 15
Procedure: as §1, §2

[6] = time points Days 14-90 only, excluding Day 180

CC(C)CC(=O)Nc1cncc(-c2ccc3[nH]nc(-c4nc5c(-c6cccc(F)c6)cncc5[nH]4)c3c2)c1 [Compound 10]
administered radioactivity recovered in the knee [1]: 75%
Inhibition of TNF-α (TNF-α): Inhibition
Inhibition of IL-1β (IL-1β): Inhibition
Inhibition of IL-6 (IL-6 [2]): Inhibition
EC50 (IL-6 [3]): 13 nM
mean % of administered dose per knee ([4]; 1 μg/knee IA, Day 14): 64%
mean % of administered dose per knee ([4]; 1 μg/knee IA, Day 30): 54%
mean % of administered dose per knee ([4]; 1 μg/knee IA, Day 60): 42%
mean % of administered dose per knee ([4]; 1 μg/knee IA, Day 90): 38%
% of administered dose detected in knee joint ([4]; 1 μg/knee IA, Day 180): ~6.6%
detection in the knee joint space (radiographic images) ([4]; Day 180): still detectable
elimination rate constant, Ke ([4]; all time points, Days 14-180): 0.01342
half-life (T1/2) in the knee joint ([4]; all time points, Days 14-180): 51.64 days
elimination rate constant, Ke [4, 6]: 0.00687
half-life (T1/2) in the knee joint [4, 6]: 100.9 days
administered radioactivity recovered in each knee joint ([4]; two IA injections at 1 μg/knee, 1 h post-IA injection up to 168 h): 60-85%
Mean radioactivity exposure AUC(0-inf) ([5]; females): 1.818 ng-equiv.h/g
Mean radioactivity exposure AUC(0-t) ([5]; females): 1.040 ng-equiv.h/g
Tmax ([5]; females): 4 h
apparent terminal elimination half-life in the blood ([5]; females): 124 h
Mean radioactivity exposure AUC(0-inf.) ([5]; males): 1.548 ng-equiv.h/g
Mean radioactivity exposure AUC(0-t) ([5]; males): 0.832 ng-equiv.h/g
Tmax ([5]; males): 1 h
apparent terminal elimination half-life in the blood ([5]; males): 57 h
Inhibition of IL-8 (IL-8): Inhibition
Inhibition of IL-5 (IL-5): Inhibition
